According to PubChem BioAssay AID624258 (Broad Institute, 2012):
Calls of active or inactive are those of the source. The rule behind the calls is not given here.

Assay: SKN7 mediated toxicity in Saccharomyces cerevisiae, growth rescue counterscreen, dose confirmation (AID 624258);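 note: growth read after three days of incubation at 30 °C; 0% = median of neutral control wells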
Conditions: S. cerevisiae SKN7-toxicity growth rescue, plate reader; at 2.1 µM (top of the series)

Row | SMILES | growth rescue activity
1 | O=S(=O)(Nc1ccccc1)c1ccc(Oc2ncc(C(F)(F)F)cc2Cl)cc1 | -15.3% (inactive)

Same assay, conditions: S. cerevisiae SKN7-toxicity growth rescue, plate reader; at 6.8 µM (top of the series)

Row | SMILES | growth rescue activity
2 | O=C(c1cc([N+](=O)[O-])cc([N+](=O)[O-])c1)N(Cc1nnc(-c2ccccc2Cl)o1)C1CC1 | -38% (inactive)
3 | CC(C)NC(=O)NC(=O)COC(=O)c1ccc([N+](=O)[O-])cc1Cl | -6.28% (inactive)
4 | COc1cc2nc(N3CCNCC3)nc(N)c2cc1OC | 5.76% (inactive)
5 | COc1cccc(C(C)=C2SC(=S)NC2=O)c1 | -39% (inactive)
6 | CC(C)(C)C(=O)N1CCN(c2ccc([N+](=O)[O-])cc2Cl)CC1 | -14.7% (inactive)
7 | Cc1ccc(NC(=S)Nc2cccc3cnccc23)cc1C | -25.1% (inactive)
8 | CN(C)CCCNc1cc(C(C)(C)C)nc2c(-c3ccc(Cl)cc3)cnn12 | 14.1% (inactive)

Same assay, conditions: S. cerevisiae SKN7-toxicity growth rescue, plate reader; at 19.5 µM (top of the series)

Row | SMILES | growth rescue activity
9 | O=C1c2cccc3cc([N+](=O)[O-])cc(c23)C(=O)N1CC1CCCO1 (configuration not stated) | 23.2% (inactive)
10 | Cn1c(SCC(=O)N2c3ccccc3Sc3ccc(Cl)cc32)nnc1-c1ccco1 | -51.2% (inactive)
11 | Cc1ccccc1C(=O)NNC(=S)NC(=O)c1ccc(Cl)cc1Cl | -23.2% (inactive)
12 | Cn1c(N=Nc2ccccc2)nc2ccccc21 | -85.7% (inactive)
13 | CCOC(=O)c1ccc(-c2ccc(C3Nc4ccccc4C(=O)N3O)o2)cc1 (configuration not stated) | -4.76% (inactive)
14 | COc1ccc(O)c(C(=O)CC(=O)c2ccccc2C)c1 | -60.2% (inactive)
15 | C=CCNC(=S)N1CCC(Cc2ccccc2)CC1 | -41% (inactive)
16 | O=c1c(CO)cc(CO)cc(CO)c1O | -26.9% (inactive)
17 | COC(=O)C(=N/Nc1ccccc1C(=O)OC)/C(C)=N/O | -7.81% (inactive)
18 | O=c1oc(-c2ccccc2)cc(Cl)c1Cl | -71.1% (inactive)
19 | CN(C)c1ccc(C=c2c3cc(O)ccc3n3c2cc(-c2ccccc2)[n+]3C)cc1 | -34.8% (inactive)
20 | O=[N+]([O-])c1cccc(C=NNc2ccc3ccccc3n2)c1O | -79.2% (inactive)
21 | O=C(N/N=C/c1cc(Br)cc(Cl)c1O)c1ccc2c(c1)OCO2 | -36.6% (inactive)
22 | O=C(Nc1cccc(C(F)(F)F)c1)c1cccnc1NCCc1ccccc1 | -54.3% (inactive)
23 | CCOc1ccc(N/N=C(/C#N)C(N)=O)cc1 | -49.6% (inactive)
24 | O=C(NC(=S)N(CCc1ccccc1)CCc1ccccc1)c1ccco1 | -9.38% (inactive)
25 | O=C(O)CSc1cc(NS(=O)(=O)c2ccc(Br)cc2)c2ccccc2c1O | 30.5% (inactive)
26 | COCCn1c(=NC(=O)CSC(C)=O)sc2cc(F)ccc21 | 56.5% (inactive)
27 | Nc1nonc1C(=O)NCCN=Cc1cc(Cc2ccccc2)cc(Br)c1O | -81% (inactive)
28 | O=c1cc(CSc2ccc(Cl)cc2)nc(-c2ccccn2)[nH]1 | -48.1% (inactive)
29 | CCOC(=O)c1cnc(-n2nc(C)cc2C)nc1NC1CCCC1 | -62% (inactive)

Row | SMILES | growth rescue activity
30 | CCCC(C)Sc1nc2c([nH]1)c(=S)n(C)c(=O)n2C (configuration not stated) | -31.9% (inactive)
31 | N#Cc1c(-c2cccc([N+](=O)[O-])c2)nc2n(c1=O)CCS2 | 1.05% (inactive)
32 | O=C1C(Nc2ccccc2)=C/C(=N/S(=O)(=O)c2cccs2)c2ccccc21 | -8.54% (inactive)
33 | O=C1OC(c2ccccc2)=NC12CC2c1ccc(Cl)cc1 (configuration not stated) | -72.5% (inactive)
34 | COc1cccc2c1C(=O)c1c(O)c3c(c(O)c1C2=O)CC(O)(C(C)=NNC(=O)c1ccc(Cl)c(Cl)c1)CC3OC1CC(N)C(O)C(C)O1 (configuration not stated) | 23.8% (inactive)
35 | Cc1ccc(-c2c3c(nc4sc(C(N)=O)c(N)c24)CCCC3)o1 | -35.3% (inactive)
36 | CCC(C)n1ncn(-c2ccc(N3CCN(c4ccc(OCC5COC(Cn6cncn6)(c6ccc(Cl)cc6Cl)O5)cc4)CC3)cc2)c1=O (configuration not stated) | -70.7% (inactive)
37 | C=CCN(CC=C)C(=S)NC(=O)c1ccc(C)c(Br)c1 | -13.6% (inactive)
38 | Clc1ccc(CSC(Cn2ccnc2)c2ccc(Cl)cc2Cl)cc1 (configuration not stated) | -73% (inactive)
39 | Fc1ccc(N2CCN(c3ccc4c(C(F)(F)F)cc(C(F)(F)F)nc4n3)CC2)cc1 | 53.6% (inactive)
40 | CCCCCCCc1ccc(-c2ccc(O)cc2)nc1 | -79.8% (inactive)
41 | O=C(Oc1ccccc1C(=S)N1CCOCC1)c1ccc([N+](=O)[O-])cc1[N+](=O)[O-] | -8.27% (inactive)
42 | O=[N+]([O-])c1ccc(S(=O)Cc2ccccc2)c([N+](=O)[O-])c1 (configuration not stated) | -45.8% (inactive)
43 | COc1ccc(O)c(C(=O)CC(=O)c2ccc(F)cc2)c1 | -74.9% (inactive)
44 | CN(C)c1ccc(C=c2c3ccccc3n3c2c2c([n+]3C)CCCC2)cc1 | -74.1% (inactive)
45 | CCc1cc(-c2[nH]ncc2-c2ccc([N+](=O)[O-])cc2)c(O)cc1OC | -43.8% (inactive)
46 | O=C(Nc1ccc(Br)c(C(F)(F)F)c1)c1ccccc1 | -78.2% (inactive)
47 | O=C(N/N=C/c1ccc[nH]1)c1sc2ccccc2c1Cl | -72.2% (inactive)
48 | Nc1cc2c3ccccc3ccc2c2ccccc12 | -51.9% (inactive)
49 | CCC(CC)C(=O)N1CCN(c2cccc(C)c2C)CC1 | -12.1% (inactive)
50 | CC(=N/O)/C(=N\O)c1ccc(C)o1 | 3.21% (inactive)

Row | SMILES | growth rescue activity
51 | CCO/C=C1/C(=O)N(Cc2ccccc2)C(=O)c2ccccc21 | 2.35% (inactive)
52 | O=C(c1cccs1)c1no[n+]([O-])c1C(=O)c1cccs1 | -87.1% (inactive)
53 | Cc1oc2c(c1C(=O)c1ccccc1)C(=O)C(=O)c1ccccc1-2 | 16.8% (inactive)
54 | C[C@@]12CCC3[C@@](CCC4[C@@]3(C)CCC[C@@]4(C)C(=O)NCc3ccccc3)(CC1=O)C2 (some centres not stated) | -51.4% (inactive)
55 | N#Cc1c(-c2ccc(Cl)cc2)n(O)c2ccccc12 | -88.7% (inactive)
56 | COc1ccc(N(C)S(=O)(=O)c2ccc(Cl)c(C(=O)NNC(=O)c3ccccc3O)c2)cc1 | 4.7% (inactive)
57 | Cc1cccc(C)c1N1C(=O)C2ON(c3ccccc3)C(c3ccncc3)C2C1=O (configuration not stated) | -56.4% (inactive)
58 | O=C(C1COc2ccccc2O1)N1CCN(c2ccccc2Cl)CC1 (configuration not stated) | -13% (inactive)
59 | Cc1nc2ccc(C(=O)NCc3ccc4c(c3)OCO4)cc2s1 | -2.94% (inactive)
60 | CC/C(=N/NC(=O)c1ccccc1O)c1c(C)[nH]n(-c2ccccc2)c1=O | -59.4% (inactive)
61 | O=C(O)CSc1cc(NS(=O)(=O)c2ccc(Cl)cc2)c2ccccc2c1O | -5.81% (inactive)
62 | O=c1c2ccccc2nc(-c2cccc(Cl)c2)n1O | -66% (inactive)
63 | COC(=O)Cc1cc(=O)n(-c2ccccc2)[nH]1 | 9.07% (inactive)
64 | O=S(=O)(Nc1ccc(-n2cccc2)cc1)c1ccc(Cl)c(Cl)c1 | -92.1% (inactive)
65 | COc1cc2c(cc1OC)C(C)N(C(=O)C1COc3ccccc3O1)CC2 (configuration not stated) | 14.6% (inactive)
66 | Cc1cccc(N2CCN(C(=O)C3COc4ccccc4O3)CC2)c1C (configuration not stated) | -49.4% (inactive)
67 | C=CCc1cccc(C=Nc2cc(Br)ccc2O)c1O | -45% (inactive)
68 | CC(Nc1cccc2ccccc12)C(=O)N/N=C/c1ccccn1 (configuration not stated) | -11.5% (inactive)
69 | COc1ccc(-c2nc(N)sc2C2(O)C(=O)Nc3c(Br)cc(F)cc32)cc1OC (configuration not stated) | 0.392% (inactive)
70 | O=C(Nc1cc(Oc2ccc(Cl)cc2)cc([N+](=O)[O-])c1)c1ccco1 | -42.9% (inactive)
71 | O=C(N1CCN(c2ccccc2)CC1)C1(S(=O)(=O)c2ccc(Cl)cc2)CC1 | 21.3% (inactive)

Row | SMILES | growth rescue activity
72 | CC(=O)NC(c1ccc(C)cc1)c1cc([N+](=O)[O-])c2cccnc2c1O (configuration not stated) | 61% (inactive)
73 | CC12CC3(C)CC(C)(C1)CC(NC(=O)N1CCCC1)(C2)C3 | -73.5% (inactive)
74 | Cn1nc(C(F)(F)F)c(C#N)c1N1CCN(c2ccc(F)cc2)CC1 | -49.6% (inactive)
75 | Cc1ccc(S(=O)(=O)N(C(=O)c2ccncc2)c2ccc(OC(=O)c3ccncc3)cc2)cc1 | -57.3% (inactive)
76 | CCCOc1ccc(S(=O)(=O)n2cc(F)c(=O)[nH]c2=O)cc1 | 0% (inactive)
77 | CCCCCCCCCCCCCC(=O)NO | -69.6% (inactive)
78 | COC(OC)c1ccc(C#N)c(SCc2ccccc2)n1 | -28.8% (inactive)
79 | Oc1ccc(N=Nc2ccc3c(c2)OCCO3)c2cccnc12 | -42.4% (inactive)
80 | N#CC1C(=N)Cc2ccccc2-c2ccccc21 (configuration not stated) | -20.3% (inactive)
81 | CN(C)c1ccc(NC2=C(Cl)C(=O)c3ccccc3C2=O)cc1 | -12.8% (inactive)
82 | CCOC(=O)C1=NN(c2ccccc2)C(=O)/C1=C\c1ccc(N(C)C)cc1 | -16.7% (inactive)
83 | Cc1ccc(Cl)cc1NC1=C/C(=N\S(=O)(=O)c2cccs2)c2ccccc2C1=O | -24.9% (inactive)
84 | O=C1N(c2ccc(Cl)cc2)C(c2cccnc2)N2CCCN12 (configuration not stated) | -65.4% (inactive)
85 | Cc1ccc(NC(=O)C2COc3ccccc3O2)cc1S(=O)(=O)N1CCCCC1 (configuration not stated) | 35.9% (inactive)
86 | CC(C)C(=O)NC(c1cccc([N+](=O)[O-])c1)c1ccc2cccnc2c1O (configuration not stated) | -62.7% (inactive)
87 | CC(C)CSc1n[nH]c(=S)s1 | -51% (inactive)
88 | CC1CCN(c2nc(-c3ccncc3)nc3ccccc23)CC1 | -17.2% (inactive)
89 | CCCn1nc(C(=O)N2CCN(S(=O)(=O)c3ccc(C)c(C)c3)CC2)c2ccccc2c1=O | -50.4% (inactive)
90 | CC1CC(=Cc2ccc([N+](=O)[O-])cc2)C(=O)O1 (configuration not stated) | 2.43% (inactive)
91 | Cc1ccc(Sc2cc(C)nc(-c3ccccn3)n2)cc1 | -67.1% (inactive)
92 | O=S(=O)(c1ccc(Oc2ccc(Br)cc2)cc1)N1CCOCC1 | 9.57% (inactive)
